Legend:
AtARGAH1 [1] = target: T1, AtARGAH1 (Arabidopsis thaliana, UniProt P46637); test: X-ray crystal structure, […] A; assay type: binding; conditions: product of arginine hydrolysis before crystal growth (50 mM L-arginine, 50 mM L-glutamic acid); binuclear Mn2+; active site, completed by loop L2* of neighbouring subunit
T1 construct: gene ARGAH1; starts at codon 25 (signal peptide removed), ends at residue 342; N-terminal His6-tag cut by TEV (vector pMCSG68); E. coli BL21 Gold; hexamer, calculated 209 kDa
T1 sequence (P46637 25-342): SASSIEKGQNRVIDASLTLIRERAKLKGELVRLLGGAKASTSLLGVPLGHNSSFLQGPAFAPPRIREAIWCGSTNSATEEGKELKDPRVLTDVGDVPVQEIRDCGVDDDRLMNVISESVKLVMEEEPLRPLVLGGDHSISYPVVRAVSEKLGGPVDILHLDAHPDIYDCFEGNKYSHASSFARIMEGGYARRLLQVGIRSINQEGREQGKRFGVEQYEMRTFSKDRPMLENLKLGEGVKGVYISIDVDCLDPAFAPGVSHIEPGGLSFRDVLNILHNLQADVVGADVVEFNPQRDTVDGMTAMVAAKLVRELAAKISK

AtARGAH1 [2] = target: T1, AtARGAH1; test: turnover to ornithine during crystallization, seen in crystal structure; assay type: biochemical; conditions: 50 mM L-arginine in crystallization solution; Mn2+ enzyme
MtARGAH = target: T2, MtARGAH (Medicago truncatula, UniProt G7JFU5); test: as above; assay type: biochemical; conditions: 50 mM L-arginine in cocrystallization; Mn2+ enzyme
T2 construct: gene ARGAH; full-length, 338 residues incl. predicted 15-residue signal peptide; N-terminal His6-tag cut by TEV (vector pMCSG68); E. coli BL21 Gold; hexamer, theoretical 224 kDa
T2 sequence (G7JFU5 1-338): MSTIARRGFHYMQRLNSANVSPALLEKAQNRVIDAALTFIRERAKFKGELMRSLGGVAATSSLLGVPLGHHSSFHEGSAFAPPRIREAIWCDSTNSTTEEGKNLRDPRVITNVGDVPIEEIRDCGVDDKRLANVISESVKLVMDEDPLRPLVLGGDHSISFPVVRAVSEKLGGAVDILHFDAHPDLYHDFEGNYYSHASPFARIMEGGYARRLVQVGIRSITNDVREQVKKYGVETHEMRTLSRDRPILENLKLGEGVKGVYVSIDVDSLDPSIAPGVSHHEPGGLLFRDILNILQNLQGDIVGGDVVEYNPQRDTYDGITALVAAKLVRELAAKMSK

SMILES	X-ray crystal structure, 2.25 A (AtARGAH1 [1])	turnover to ornithine during crystallization, seen in crystal structure (AtARGAH1 [2])	turnover to ornithine during crystallization, seen in crystal structure (MtARGAH)
NCCC[C@H](N)C(=O)O [ornithine]	Structures of AtARGAH1-ORN and MtARGAH-ORN with the reaction product, ornithine, were obtained	–	–
N=C(N)NCCC[C@H](N)C(=O)O [L-arginine]	–	obtained as a result of in vitro arginine hydrolysis	obtained as a result of in vitro arginine hydrolysis
